Data: patent publication US20130252813A1, “Herbicidal Compositions for Tolerant or Resistant Sugar Beet Crops” (Bayer CropScience AG, priority 1998, published 2013)
Counter-ions that a name gives are not always drawn.

Assays:
Assay type in all cases: in vivo
Kochia scoparia = assay: Herbicidal action (field trial, Table 6); conditions: application in the 3-5-leaf stage, scoring 4 weeks after application
Procedure: (§1) Transgenic sugar beet plants with resistance to one or more herbicides (A) were grown together with typical weed plants in the open in 2×5 m plots under natural field conditions; alternatively, the weed population established naturally while the sugar beet plants grew. Treatment with the compositions according to the invention and, for control purposes, with separate application of the active ingredients of the components alone, was carried out under standard conditions with a plot sprayer at an application rate of 200-300 liters of water per hectare in parallel trials in accordance with the scheme of Table 1, i.e. pre-sowing/pre-emergence, […] or post-emergence at the early, medium or late stage.
(§2) At 2, 4, 6 and 8 week intervals after application, the herbicidal activity of the active ingredients or active ingredient mixtures were scored visually by comparing the treated plots with untreated control plots. Damage and development of all aerial plant organs was recorded. The scoring was done using a percentage scale (100% activity=all plants dead; 50% activity=50% of the plants and green plant organs dead; 0% activity=no discernible effect=like control plot). The score values of in each case 4 plots were averaged.

Galium aparine [1] = assay: Herbicidal action (field trial, Table 6); conditions: application in the 3-5-leaf stage, scoring 4 weeks after application
Procedure: as §1, §2

transgenic sugar beet [2] = assay: Damage to transgenic sugar beet - field trial (Table 2); conditions: application in 2-4-leaf stage
Procedure: as §1, §2

Echinochloa crus-galli = assay: Herbicidal action and selectivity in sugar beet crop (field trial, Table 4); conditions: application in 3-leaf stage, scoring 4 weeks after application
Procedure: as §1, §2

Avena fatua = assay: Herbicidal action and selectivity in sugar beet crop (field trial, Table 5); conditions: application in the 3-5-leaf stage, scoring 4 weeks after application
Procedure: as §1, §2

transgenic sugar beet [3] = assay: Damage to transgenic sugar beet (field trial, Table 4); conditions: application in 3-leaf stage
Procedure: as §1, §2

transgenic sugar beet [4] = assay: Damage to transgenic sugar beet (field trial, Table 5); conditions: application in the 3-5-leaf stage
Procedure: as §1, §2

Amaranthus retroflexus = assay: Herbicidal action (field trial, sequential treatment, Table 8); conditions: dose 200 g A.S./ha post-emergence at the 2-3-leaf stage; scorings 22 days after application
Procedure: as §1
(§3) […] Damage and development of all aerial plant organs was recorded. The scoring was done using a percentage scale (100% activity=all plants dead; 50% activity=50% of the plants and green plant organs dead; 0% activity=no discernible effect=like control plot). The score values of in each case 4 plots were averaged.

Setaria viridis [5] = assay: as above; conditions: dose 200 g A.S./ha post-emergence at the 2-3-leaf stage; scorings 22 days after application
Procedure: as §1, §3

Galium aparine [6] = assay: Herbicidal action in sugar beet crop (greenhouse experiment, Table 3); conditions: application in the 4-5-leaf stage, scoring 3 weeks after application
Excerpt: Seeds or rhizomes of monocotyledonous and dicotyledonous weeds are placed in sandy loam soil in cardboard pots, covered with soil and grown in the greenhouse under good growth conditions. […] The compositions according to the
Invention, which are formulated as wettable powders or as emulsion concentrates, are sprayed at various dosages onto the green plant organs at an application rate of 600 to 800 l of water per ha (converted). After the experimental plants have remained in the greenhouse for approx. 3 to 4 weeks under optimal growth conditions, the effect of the preparations is scored visually in comparison with untreated controls. The compositions according to the invention also have a good herbicidal activity against a broad spectrum of economically Important grass weeds and broad-leaved weeds when applied post-emergence.

transgenic sugar beet [7] = assay: Damage to transgenic sugar beet (greenhouse experiment, Table 3); conditions: greenhouse Table 3, application in the 4-5-leaf stage
Setaria viridis [8] = assay: Herbicidal action in sugar beet - field trial (Table 2); conditions: application in 2-4-leaf stage, scoring 3 weeks after application
Procedure: as §1, §3

SMILES: CP(=O)(O)CCC(N)C(=O)O (stereo not shown) [(A1.2), glufosinate monoammonium salt]
- Herbicidal action in % against Kochia scoparia (Kochia scoparia; dose 250 g A.S./ha): 30%
- Herbicidal action in % against Kochia scoparia (Kochia scoparia; dose 300 g A.S./ha): 52%
- Herbicidal action in % against Kochia scoparia (Kochia scoparia; dose 600 g A.S./ha): 75%
- Herbicidal action in % against Galium aparine (Galium aparine [1]; dose 250 g A.S./ha): 20%
- Herbicidal action in % against Galium aparine (Galium aparine [1]; dose 300 g A.S./ha): 40%
- Herbicidal action in % against Galium aparine (Galium aparine [1]; dose 600 g A.S./ha): 85%
- Damage to transgenic sugar beet (transgenic sugar beet [2]; dose 37.5 g A.S./ha): 0
- Damage to transgenic sugar beet (transgenic sugar beet [2]; dose 75 g A.S./ha): 0
- Damage to transgenic sugar beet (transgenic sugar beet [2]; dose 150 g A.S./ha): 0
- Damage to transgenic sugar beet (transgenic sugar beet [2]; dose 300 g A.S./ha): 0
- Herbicidal action in % against Echinochloa crus-galli (Echinochloa crus-galli): 45%
- Herbicidal action in % against Echinochloa crus-galli (Echinochloa crus-galli; dose 10 g A.S./ha): 60%
- Herbicidal action in % against Echinochloa crus-galli (Echinochloa crus-galli; dose 65 g A.S./ha): 85%
- Herbicidal action in % against Avena fatua (Avena fatua; dose 150 g A.S./ha): 30%
- Herbicidal action in % against Avena fatua (Avena fatua; dose 300 g A.S./ha): 65%
- Herbicidal action in % against Avena fatua (Avena fatua; dose 600 g A.S./ha): 95%
- Damage to transgenic sugar beet (transgenic sugar beet [3]; dose 0 g A.S./ha): 0
- Damage to transgenic sugar beet (transgenic sugar beet [3]; dose 10 g A.S./ha): 0
- Damage to transgenic sugar beet (transgenic sugar beet [3]; dose 65 g A.S./ha): 0
- Damage to transgenic sugar beet (transgenic sugar beet [4]; dose 150 g A.S./ha): 0
- Damage to transgenic sugar beet (transgenic sugar beet [4]; dose 300 g A.S./ha): 0
- Damage to transgenic sugar beet (transgenic sugar beet [4]; dose 600 g A.S./ha): 0
- Herbicidal action in % against Amaranthus retroflexus (Amaranthus retroflexus): 55%
- Herbicidal action in % against Setaria viridis (Setaria viridis [5]): 60%
- Herbicidal action in % against Galium aparine (Galium aparine [6]; dose 125 g A.S./ha): 45%
- Herbicidal action in % against Galium aparine (Galium aparine [6]; dose 250 g A.S./ha): 60%
- Herbicidal action in % against Galium aparine (Galium aparine [6]; dose 500 g A.S./ha): 85%
- Damage to transgenic sugar beet (transgenic sugar beet [7]; dose 125 g A.S./ha): 0
- Damage to transgenic sugar beet (transgenic sugar beet [7]; dose 250 g A.S./ha): 0
- Damage to transgenic sugar beet (transgenic sugar beet [7]; dose 500 g A.S./ha): 0
- Herbicidal action in % against Setaria viridis (Setaria viridis [8]; dose 37.5 g A.S./ha): 35%
- Herbicidal action in % against Setaria viridis (Setaria viridis [8]; dose 75 g A.S./ha): 85%
- Herbicidal action in % against Setaria viridis (Setaria viridis [8]; dose 150 g A.S./ha): 95%
- Herbicidal action in % against Setaria viridis (Setaria viridis [8]; dose 300 g A.S./ha): 98%
